Experimental data published in patent publication US10000500B2 (PROMEGA CORPORATION, priority 2016, dated 2018).

T1: Renilla luciferase (Renilla reniformis, UniProt P27652)
T1 sequence (P27652 1-311): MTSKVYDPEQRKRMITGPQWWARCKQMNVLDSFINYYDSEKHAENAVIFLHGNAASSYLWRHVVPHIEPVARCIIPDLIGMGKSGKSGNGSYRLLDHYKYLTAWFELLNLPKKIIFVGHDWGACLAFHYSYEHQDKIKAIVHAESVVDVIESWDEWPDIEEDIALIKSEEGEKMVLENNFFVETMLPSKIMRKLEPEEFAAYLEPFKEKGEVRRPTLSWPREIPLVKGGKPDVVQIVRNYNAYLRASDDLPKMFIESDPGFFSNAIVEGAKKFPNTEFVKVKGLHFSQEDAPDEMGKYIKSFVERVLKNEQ

B1: Renilla luciferase (Renilla reniformis) (protein)
chain: T1 sequence (P27652 1-311)

Tests used:
Format in all cases: biochemical
NANOLUC® Luciferase [1] = molecular target: T2, NANOLUC® Luciferase (Oplophorus gracilirostris, UniProt Q9GV45, A31E/A60N/A81I/F95D/I117V/K70R/L54V/L99Q/M102K/N193R/P142E/Q151K/Q38R/Q45L/V71I/Y165I); test: Spectral measurements in various buffers with NANOLUC luciferase (Example 10); settings: for High / Low / Peak / Width: emission spectrum
T2 sequence (Q9GV45 28-196 with tags or gaps with the stated changes limits assumed): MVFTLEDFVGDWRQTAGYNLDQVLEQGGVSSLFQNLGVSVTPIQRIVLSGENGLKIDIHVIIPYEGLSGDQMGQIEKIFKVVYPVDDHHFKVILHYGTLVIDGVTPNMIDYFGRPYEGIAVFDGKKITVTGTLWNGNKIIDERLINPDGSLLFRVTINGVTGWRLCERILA
Description: Each compound to be screened was diluted to a concentration of 100 uM (50 uM final concentration) in Renilla Glo Luciferase Assay buffer (Promega Corporation), NANO-GLO Luciferase Assay Buffer (Promega Corporation), or 20 uM (10 uM final) in OptiMEM+0.1% FBS. NANOLUC® luciferase and Renilla luciferase were serially diluted to 4, 40, and 400 ng/ml in OptiMEM+0.1% FBS. 50 ul of each compound dilution was mixed with 50 ul enzyme dilution and incubated for 1 minute at room temperature. Autoluminescence spectra of AS-353 was measured by adding 20 uM of substrate to OptiMEM+20% FBS and then 50 ul of this dilution was combined with 50 ul of OptiMEM+0.1% FBS. Spectral measurements were measured using a Tecan M-1000 luminometer. ([…]).

Renilla luciferase = molecular target: T1, Renilla luciferase; test: Enzyme titration with Renilla luciferase (Example 9B); settings: FIG. 2B
Description: (§1) Renilla luciferase and NanoLuc Lucifersase were diluted to a concentration of 4 ug/ml (4 ng/uL) in OptiMEM+0.1% FBS. 10× serial dilutions of the luciferases were then prepared in OptiMEM+0.1% FBS. Each substrate was diluted to 100 uM into Renilla Glo Luciferase assay buffer (Promega Corporation). The 10× enzyme serial dilutions were then combined with the substrate dilutions, 50 ul mixed with 50 ul compound, and incubated for 1 minute at room temperature. Light output for each compound was measured on a GLOMAX®-Multi+ luminometer.

NANOLUC® Luciferase [2] = molecular target: T2, NANOLUC® Luciferase; test: Enzyme titration with NanoLuc luciferase (Example 9B); settings: substrate 100 uM; FIG. 2B
Description: as §1

[3] = substrate: O=c1c(Cc2ccco2)nc2c(Cc3ccccc3)[nH]c(-c3ccccc3)cn1-2; test: Km and Vmax substrate titration with Renilla luciferase (Example 8); settings: other: Renilla luciferase 4 ng/ml; Renilla Glo buffer; Michaelis-Menten fit
Description: Each compound to be screened was diluted to a concentration of 100 uM in Renilla Glo Luciferase Assay buffer (Promega Corporation) and then further diluted to 2×serial dilution in Renilla Glo Luciferase Assay Buffer. NANOLUC® luciferase and Renilla luciferase were diluted to a concentration of 4 ng/ml in OptiMEM+0.1% FBS. 50 ul of each compound dilution was then mixed with 50 ul of each enzyme dilution and incubated for 1 minute at room temperature. Light output for each compound was measured on a GLOMAX®-Multi+ luminometer. Km and Vmax were calculated for each enzyme/substrate combination using a GraphPad Prism Michaelis-Menten non-linear fit (FIGS. 1A-ID).

| Molecule | shift of the NanoLuc luciferase spectral properties (NANOLUC® Luciferase [1]; FIGS. 3A-3C and 4A-4D) | NanoGlo (spectral peak, Table 4) (NANOLUC® Luciferase [1]; NanoLuc, NanoGlo buffer) | OptiMEM (spectral peak, Table 4) (NANOLUC® Luciferase [1]; NanoLuc, OptiMEM) | High (NANOLUC® Luciferase [1]; NanoLuc, NanoGlo Buffer) | Low (NANOLUC® Luciferase [1]; NanoLuc, NanoGlo Buffer) | Peak (NANOLUC® Luciferase [1]; NanoLuc, NanoGlo Buffer) | Width (NANOLUC® Luciferase [1]; NanoLuc, NanoGlo Buffer) | High (NANOLUC® Luciferase [1]; NanoLuc, OptiMEM + 0.1% FBS) | Low (NANOLUC® Luciferase [1]; NanoLuc, OptiMEM + 0.1% FBS) | Peak (NANOLUC® Luciferase [1]; NanoLuc, OptiMEM + 0.1% FBS) | Width (NANOLUC® Luciferase [1]; NanoLuc, OptiMEM + 0.1% FBS) | enzyme dependent luminescence with Renilla Luciferase (Renilla luciferase) | lower RLU values with NanoLuc compared to AS-360 (NANOLUC® Luciferase [2]) [×] | Km [3] [µM] |
| --- | --- | --- | --- | --- | --- | --- | --- | --- | --- | --- | --- | --- | --- | --- |
| N#Cc1ccc(-c2[nH]c(-c3ccc(O)cc3)cn3c(=O)c(Cc4ccco4)nc2-3)s1 [AS-353, 5-(2-(furan-2-ylmethyl)-6-(4-hydroxyphenyl)-3-oxo-3,7-dihydroimidazo[1,2-a]pyrazin-8-yl)thiophene-2-carbonitrile] | shifted the NanoLuc® luciferase spectral properties to red | 592 | 583 | 652 | 550 | 592 | 102 | 637 | 544 | 583 | 93 | only at the highest enzyme concentration | ~100 | – |
| B1 | – | – | – | – | – | – | – | – | – | – | – | – | – | 10.6 |
